What all share (type): functional, cell-based
Assay [1] deals with HeLa C3. Nature of the assay: Induction of apoptosis in human HeLaC3 cells assessed as reduction of yellow fluorescent protein/cyan fluorescent protein emission ratio below 3 at 100 uM after 72 hrs by FRET assay.
The test system of assay [2] is HeLa C3. Nature of the assay: Induction of apoptosis in human HeLaC3 cells assessed as reduction of yellow fluorescent protein/cyan fluorescent protein emission ratio below 3 at 50 uM after 72 hrs by FRET assay.
In assay [3] the test system is HeLa C3. Description: Induction of apoptosis in human HeLaC3 cells assessed as reduction of yellow fluorescent protein/cyan fluorescent protein emission ratio below 3 at 25 uM after 72 hrs by FRET assay.
The subject of assay [4] is HeLa C3. Description: Induction of apoptosis in human HeLaC3 cells assessed as reduction of yellow fluorescent protein/cyan fluorescent protein emission ratio below 3 at 10 uM after 72 hrs by FRET assay.
Assay [5] has as its system HeLa. Description: Cytotoxicity against human HeLa cells after 72 hrs by MTT assay. (In general: Formazan colour is commonly taken as a measure of viable cells.)
Assay [6] concerns HeLa C3. Nature of the assay: Induction of apoptosis in human HeLaC3 cells assessed as morphological changes at 25 uM after 24 to 72 hrs.
The test system of assay [7] is HeLa C3. Nature of the assay: Induction of apoptosis in human HeLaC3 cells assessed as reduction of yellow fluorescent protein/cyan fluorescent protein emission ratio below 3 at 25 uM after 24 hrs by FRET assay.
The test system of assay [8] is HeLa C3. Nature of the assay: Induction of apoptosis in human HeLaC3 cells assessed as morphological changes at 500 nM after 24 to 72 hrs.
Assay [9] deals with HeLa C3. Nature of the assay: Induction of apoptosis in human HeLaC3 cells assessed as reduction of yellow fluorescent protein/cyan fluorescent protein emission ratio below 3 at 25 uM after 48 hrs by FRET assay.
Assay [10] has as its system HeLa. Description: Induction of apoptosis in human HeLa cells assessed as cleavage of PARP at 25 uM after 12 hrs by Western blotting. On the technique in general: In western blotting, separated proteins are transferred to a membrane and probed.
Assay [11] concerns HeLa. Nature of the assay: Induction of apoptosis in human HeLa cells assessed as cleavage of PARP at 25 uM after 36 hrs by Western blotting.
Assay [12] concerns HeLa C3. Description: Induction of apoptosis in human HeLaC3 cells at < 100 uM after 72 hrs.
Assay [13] concerns HeLa C3. Nature of the assay: Induction of apoptosis in human HeLaC3 cells at 50 to 100 uM after 72 hrs.

SMILES strings stand for the structures. Activity calls are given as the source filed them. The calls are words filed in the database; no cut-off is given here.

For `CC(C)=CCC/C(C)=C/CC/C(C)=C/CCC1(C)CCc2c(C)cc(O)c(O)c2O1` (configuration not stated) [PAUCINERVIN D], the outcome in the assay with HeLa C3 [1] and with HeLa C3 [2] was Active. The result in the assay on HeLa C3 [3] and in the assay with HeLa C3 [4] was inactive. Moreover, in the assay on HeLa [5], half-maximal inhibition (IC50) required 29.5 µM.
In the case of `CC(C)=CCC/C(C)=C/C[C@H]1C[C@]2(CC=C(C)C)C(=O)[C@@](CC=C(C)C)(C(=O)C(C(=O)c3ccc(O)c(O)c3)=C2O)[C@]1(C)CCC=C(C)C`, the result in the assay on HeLa C3 [1], in the assay on HeLa C3 [2], with HeLa C3 [3] and with HeLa C3 [6] was Active. Besides, in the assay with HeLa C3 [4], the outcome was inactive.
Take `C=C(C)[C@@H]1C[C@]23C[C@H](CC=C(C)C)C(C)(C)[C@](CC=C(C)C)(C(=O)C(C(=O)c4ccc(O)c(O)c4)=C2O[C@H]1C=C(C)C)C3=O`: the result in the assay on HeLa C3 [1], in the assay on HeLa C3 [2], with HeLa C3 [3], in the assay with HeLa C3 [6] and in the assay on HeLa C3 [7] was Active. Besides, the outcome with HeLa C3 [4] was inactive.
For `CC(C)=CCc1c(O)cc(O)c2c(=O)c3cc4c(c(O)c3oc12)OC(C)(C)C=C4`, the result in the assay on HeLa C3 [1], with HeLa C3 [2], in the assay with HeLa C3 [3] and in the assay on HeLa C3 [6] was Active. Moreover, the outcome in the assay on HeLa C3 [4] was inactive.
Take `CC1=CCCC(C)(C)C1CCC(C)CCCC(C)CCO` (configuration not stated): the result in the assay with HeLa C3 [1], in the assay with HeLa C3 [2], in the assay with HeLa C3 [3] and with HeLa C3 [4] was inactive.
Regarding `CC(C)=CCc1cc2c(=O)c3c(O)c(CC=C(C)C)c(O)c(CC=C(C)C)c3oc2c(O)c1O`, the outcome in the assay with HeLa C3 [1] and in the assay with HeLa C3 [2] was Active. For the same compound, the result in the assay with HeLa C3 [3] and with HeLa C3 [4] was inactive.
As to `C=CC(C)(C)c1c(OC)c(CC=C(C)C)c(O)c2c(=O)c3ccc(O)c(O)c3oc12`, the result in the assay on HeLa C3 [1] and in the assay with HeLa C3 [2] was Active. Besides, the outcome in the assay on HeLa C3 [3] and in the assay with HeLa C3 [4] was inactive.
For the compound `CC(=O)O[C@H]1C(=O)[C@@]2(C)[C@H]([C@H](OC(=O)c3ccccc3)[C@]3(O)C[C@H](OC(=O)[C@H](O)[C@@H](NC(=O)c4ccccc4)c4ccccc4)C(C)=C1C3(C)C)[C@]1(OC(C)=O)CO[C@@H]1C[C@@H]2O`, the outcome with HeLa C3 [8] was Active.
On to `CC(C)=CCC/C(C)=C/CC/C(C)=C/CCC1(C)CCc2c(C)ccc(O)c2O1` (configuration not stated), for which the outcome with HeLa C3 [1], in the assay with HeLa C3 [3] and with HeLa C3 [4] was inactive. Besides, the result in the assay with HeLa C3 [2] was Active.
For `COC(=O)c1c(O)cc(O)cc1Oc1c(O)c(OC)cc(CC=C(C)C)c1OC` [PAUCINERVIN B], the result in the assay with HeLa C3 [1], in the assay with HeLa C3 [2], with HeLa C3 [3], in the assay with HeLa C3 [6], in the assay with HeLa C3 [9] and with HeLa [10] was Active. In addition, the result in the assay with HeLa [11] was Active. Besides, the result in the assay with HeLa C3 [4] was inactive. The IC50 in the assay on HeLa [5] came to 9.5 µM.
`CC(C)=CCc1c(O)cc2oc3ccc(O)cc3c(=O)c2c1O`: the outcome in the assay with HeLa C3 [1], in the assay on HeLa C3 [2], in the assay with HeLa C3 [3] and in the assay with HeLa C3 [4] was inactive. The outcome in the assay on HeLa C3 [12] was Active.
For the compound `CC1(C)C=Cc2c(cc3oc4c(O)c(O)ccc4c(=O)c3c2O)O1`, the result with HeLa C3 [1], in the assay with HeLa C3 [3], in the assay with HeLa C3 [4], with HeLa C3 [6], with HeLa C3 [9] and with HeLa C3 [13] was Active. Moreover, the outcome with HeLa [10] and in the assay with HeLa [11] was Active. Further, in the assay on HeLa C3 [2], the result was inactive.
Turning to `CC1=C(C)C(=O)C(CCC(C)(O)CCCC(C)CCCC(C)CCCC(C)C)=C(C)C1=O` (configuration not stated), the result with HeLa C3 [1], with HeLa C3 [2], in the assay on HeLa C3 [3] and in the assay on HeLa C3 [4] was inactive. Also, the result in the assay with HeLa C3 [12] was Active.
`CC(C)=CC[C@H]1C[C@@]23C[C@@H](CC=C(C)C)C(C)(C)[C@@](CC=C(C)C)(C(=O)C(C(=O)c4ccc(O)c(O)c4)=C2OC1(C)C)C3=O`: the outcome with HeLa C3 [1], with HeLa C3 [2] and in the assay with HeLa C3 [4] was inactive. Besides, the outcome in the assay on HeLa C3 [3], with HeLa C3 [6], in the assay with HeLa C3 [7] and in the assay on HeLa C3 [13] was Active.
For the compound `CC1(C)C=Cc2c(c3ccoc3c3oc4c(O)cccc4c23)O1` [PAUCINERVIN C], the outcome in the assay with HeLa C3 [1] was Active. For the same compound, the outcome in the assay on HeLa C3 [2], with HeLa C3 [3] and in the assay with HeLa C3 [4] was inactive. In the assay with HeLa [5], the IC50 is 52.5 µM.
Consider `COc1c(O)c(CC=C(C)C)cc2c1Oc1cc(O)c(CC=C(C)C)c(O)c1C(=O)O2` [PAUCINERVIN A], for which, in the assay with HeLa C3 [1], the result was Active. Besides, the result in the assay on HeLa C3 [2], in the assay with HeLa C3 [3] and in the assay with HeLa C3 [4] was inactive. Inhibition in the assay with HeLa [5] was half-maximal at 95.6 µM (IC50).
Consider `C=C(C)[C@H]1C/C=C(\C)CC/C=C(\C)CC/C=C(\C)CC1`, for which, in the assay on HeLa C3 [1], the outcome was Active. Besides, the result in the assay with HeLa C3 [2], in the assay with HeLa C3 [3] and with HeLa C3 [4] was inactive.

In general, IC50 refers to the midpoint of a concentration-inhibition curve. Low values mean greater potency in that assay, high ones weaker potency in that assay.

Values taken from ChEMBL document CHEMBL1250438, “Identification and evaluation of apoptotic compounds from Garcinia paucinervis” (Bioorg Med Chem, 2010).
